# Measurements published in ChEMBL document CHEMBL3046483, “Novel 2'-hydroxylfurylchalcones: synthesis and biological activity” (2010).
# The source made the active and inactive calls. No cut-off for these calls is given here.
# System: Pyricularia grisea
# Experiment: Antifungal activity against Magnaporthe grisea assessed as rice blast control measured after 1 day
# Format: functional, organism-based
row,SMILES,Activity
1,Cc1ccc(/C=C/C(=O)c2occc2O)cc1,inactive
2,O=C(/C=C/c1ccc(F)cc1)c1occc1O,inactive
3,O=C(/C=C/c1ccc(Br)cc1)c1occc1O,inactive
4,O=C(/C=C/c1ccccc1)c1occc1O,inactive
5,O=C(/C=C/c1ccccn1)c1occc1O,inactive
6,O=C(/C=C/c1ccc2ccccc2c1)c1occc1O,inactive

# System: Sorghum bicolor
# Experiment: Herbicidal activity against Sorghum bicolor assessed as inhibitory rate of fresh weight gain at 7.5 g/hm'2 relative to control
# Format: functional
row,SMILES,inhibition (INH) [%]
1,COC(=O)[C@@H](C)Oc1ccc(Oc2ncc(C(F)(F)F)cc2Cl)cc1 [HALOXYFOP-P-METHYL],100
2,Cc1ccc(/C=C/C(=O)c2occc2O)cc1,32.3
3,O=C(/C=C/c1ccccc1)c1occc1O,36
4,O=C(/C=C/c1ccccn1)c1occc1O,11.3

# System: Pseudoperonospora cubensis
# Experiment: Antifungal activity against Pseudoperonospora cubensis assessed as cucumber downy mildew control measured after 1 day
# Format: functional, organism-based
row,SMILES,Activity
1,Cc1ccc(/C=C/C(=O)c2occc2O)cc1,inactive
2,O=C(/C=C/c1ccc(F)cc1)c1occc1O,inactive
3,O=C(/C=C/c1ccc(Br)cc1)c1occc1O,inactive
4,O=C(/C=C/c1ccccc1)c1occc1O,inactive
5,O=C(/C=C/c1ccccn1)c1occc1O,inactive
6,O=C(/C=C/c1ccc2ccccc2c1)c1occc1O,inactive

# System: Dinebra chinensis
# Experiment: Herbicidal activity against Dinebra chinensis assessed as inhibitory rate of seedling height at 7.5 g/hm'2 relative to control
# Format: functional
row,SMILES,inhibition (INH) [%]
1,COC(=O)[C@@H](C)Oc1ccc(Oc2ncc(C(F)(F)F)cc2Cl)cc1 [HALOXYFOP-P-METHYL],100
2,Cc1ccc(/C=C/C(=O)c2occc2O)cc1,-10.1
3,O=C(/C=C/c1ccc(F)cc1)c1occc1O,3.5
4,O=C(/C=C/c1ccc(Br)cc1)c1occc1O,4.2
5,O=C(/C=C/c1ccccc1)c1occc1O,-4.4
6,O=C(/C=C/c1ccccn1)c1occc1O,6.7
7,O=C(/C=C/c1ccc2ccccc2c1)c1occc1O,-7.4

# System: Amaranthus tricolor
# Experiment: Herbicidal activity against Amaranthus tricolor assessed as inhibitory rate of seedling height at 7.5 g/hm'2 relative to control
# Format: functional
row,SMILES,inhibition (INH) [%]
1,COC(=O)[C@@H](C)Oc1ccc(Oc2ncc(C(F)(F)F)cc2Cl)cc1 [HALOXYFOP-P-METHYL],2.1
2,Cc1ccc(/C=C/C(=O)c2occc2O)cc1,12.5
3,O=C(/C=C/c1ccc(F)cc1)c1occc1O,6.3
4,O=C(/C=C/c1ccc(Br)cc1)c1occc1O,37.5
5,O=C(/C=C/c1ccccc1)c1occc1O,18.8
6,O=C(/C=C/c1ccccn1)c1occc1O,18.8
7,O=C(/C=C/c1ccc2ccccc2c1)c1occc1O,37.5

# System: Triticum aestivum
# Experiment: Herbicidal activity against Triticum aestivum (wheat) assessed as inhibitory rate of seedling height at 7.5 g/hm'2 relative to control
# Format: functional
row,SMILES,inhibition (INH) [%]
1,COC(=O)[C@@H](C)Oc1ccc(Oc2ncc(C(F)(F)F)cc2Cl)cc1 [HALOXYFOP-P-METHYL],100
2,Cc1ccc(/C=C/C(=O)c2occc2O)cc1,28.1
3,O=C(/C=C/c1ccc(F)cc1)c1occc1O,37
4,O=C(/C=C/c1ccc(Br)cc1)c1occc1O,42.5
5,O=C(/C=C/c1ccccc1)c1occc1O,37.2
6,O=C(/C=C/c1ccccn1)c1occc1O,37
7,O=C(/C=C/c1ccc2ccccc2c1)c1occc1O,27.1

# System: Brassica rapa subsp. oleifera
# Experiment: Herbicidal activity against Brassica rapa subsp. oleifera assessed as inhibitory rate of fresh weight gain at 7.5 g/hm'2 relative to control
# Format: functional
row,SMILES,inhibition (INH) [%]
1,COC(=O)[C@@H](C)Oc1ccc(Oc2ncc(C(F)(F)F)cc2Cl)cc1 [HALOXYFOP-P-METHYL],17.2
2,Cc1ccc(/C=C/C(=O)c2occc2O)cc1,45.9
3,O=C(/C=C/c1ccc(F)cc1)c1occc1O,15.1
4,O=C(/C=C/c1ccc(Br)cc1)c1occc1O,66.7
5,O=C(/C=C/c1ccccc1)c1occc1O,60.3
6,O=C(/C=C/c1ccccn1)c1occc1O,31.8
7,O=C(/C=C/c1ccc2ccccc2c1)c1occc1O,72.9

# System: Golovinomyces cichoracearum
# Experiment: Antifungal activity against Golovinomyces cichoracearum assessed as cucumber powdery mildew control measured after 1 day
# Format: functional
# Design: concentration or dose not given beside the values
row,SMILES,Activity [%]
1,Cc1ccc(/C=C/C(=O)c2occc2O)cc1,<10
2,O=C(/C=C/c1ccc(F)cc1)c1occc1O,<10
3,O=C(/C=C/c1ccc(Br)cc1)c1occc1O,<10
4,O=C(/C=C/c1ccccc1)c1occc1O,<10
5,O=C(/C=C/c1ccccn1)c1occc1O,<10
6,O=C(/C=C/c1ccc2ccccc2c1)c1occc1O,<10

# System: Brassica rapa subsp. oleifera
# Experiment: Herbicidal activity against Brassica rapa subsp. oleifera assessed as inhibitory rate of seedling height at 7.5 g/hm'2 relative to control
# Format: functional
row,SMILES,inhibition (INH) [%]
1,COC(=O)[C@@H](C)Oc1ccc(Oc2ncc(C(F)(F)F)cc2Cl)cc1 [HALOXYFOP-P-METHYL],44.4
2,Cc1ccc(/C=C/C(=O)c2occc2O)cc1,33.3
3,O=C(/C=C/c1ccc(F)cc1)c1occc1O,19
4,O=C(/C=C/c1ccc(Br)cc1)c1occc1O,52.4
5,O=C(/C=C/c1ccccc1)c1occc1O,38.1
6,O=C(/C=C/c1ccccn1)c1occc1O,52.4
7,O=C(/C=C/c1ccc2ccccc2c1)c1occc1O,52.4

# System: Cucumis sativus
# Experiment: Herbicidal activity against Cucumis sativus (cucumber) assessed as inhibitory rate of fresh weight gain at 7.5 g/hm'2 relative to control
# Format: functional
row,SMILES,inhibition (INH) [%]
1,COC(=O)[C@@H](C)Oc1ccc(Oc2ncc(C(F)(F)F)cc2Cl)cc1 [HALOXYFOP-P-METHYL],31.5
2,Cc1ccc(/C=C/C(=O)c2occc2O)cc1,39.3
3,O=C(/C=C/c1ccc(F)cc1)c1occc1O,17.5
4,O=C(/C=C/c1ccc(Br)cc1)c1occc1O,34.5
5,O=C(/C=C/c1ccccc1)c1occc1O,1.3
6,O=C(/C=C/c1ccccn1)c1occc1O,33.1
7,O=C(/C=C/c1ccc2ccccc2c1)c1occc1O,44

# System: Sorghum bicolor
# Experiment: Herbicidal activity against Sorghum bicolor assessed as inhibitory rate of seedling height at 7.5 g/hm'2 relative to control
# Format: functional
row,SMILES,inhibition (INH) [%]
1,COC(=O)[C@@H](C)Oc1ccc(Oc2ncc(C(F)(F)F)cc2Cl)cc1 [HALOXYFOP-P-METHYL],100
2,Cc1ccc(/C=C/C(=O)c2occc2O)cc1,-3.8
3,O=C(/C=C/c1ccccc1)c1occc1O,55.3
4,O=C(/C=C/c1ccccn1)c1occc1O,13.6

# System: Dinebra chinensis
# Experiment: Herbicidal activity against Dinebra chinensis assessed as inhibitory rate of fresh weight gain at 7.5 g/hm'2 relative to control
# Format: functional
row,SMILES,inhibition (INH) [%]
1,COC(=O)[C@@H](C)Oc1ccc(Oc2ncc(C(F)(F)F)cc2Cl)cc1 [HALOXYFOP-P-METHYL],100
2,Cc1ccc(/C=C/C(=O)c2occc2O)cc1,47.8
3,O=C(/C=C/c1ccc(F)cc1)c1occc1O,19
4,O=C(/C=C/c1ccc(Br)cc1)c1occc1O,66.7
5,O=C(/C=C/c1ccccc1)c1occc1O,31.3
6,O=C(/C=C/c1ccccn1)c1occc1O,37.4
7,O=C(/C=C/c1ccc2ccccc2c1)c1occc1O,55.9

# System: Botrytis cinerea
# Experiment: Antifungal activity against Botryotinia fuckeliana assessed as cucumber grey mould control measured after 1 day
# Format: functional, organism-based
row,SMILES,Activity
1,Cc1ccc(/C=C/C(=O)c2occc2O)cc1,inactive
2,O=C(/C=C/c1ccc(F)cc1)c1occc1O,inactive
3,O=C(/C=C/c1ccc(Br)cc1)c1occc1O,inactive
4,O=C(/C=C/c1ccccc1)c1occc1O,inactive
5,O=C(/C=C/c1ccccn1)c1occc1O,inactive
6,O=C(/C=C/c1ccc2ccccc2c1)c1occc1O,inactive

# System: Triticum aestivum
# Experiment: Herbicidal activity against Triticum aestivum (wheat) assessed as inhibitory rate of fresh weight gain at 7.5 g/hm'2 relative to control
# Format: functional
row,SMILES,inhibition (INH) [%]
1,COC(=O)[C@@H](C)Oc1ccc(Oc2ncc(C(F)(F)F)cc2Cl)cc1 [HALOXYFOP-P-METHYL],100
2,Cc1ccc(/C=C/C(=O)c2occc2O)cc1,53
3,O=C(/C=C/c1ccc(F)cc1)c1occc1O,40.6
4,O=C(/C=C/c1ccc(Br)cc1)c1occc1O,64.2
5,O=C(/C=C/c1ccccc1)c1occc1O,46.2
6,O=C(/C=C/c1ccccn1)c1occc1O,40.9
7,O=C(/C=C/c1ccc2ccccc2c1)c1occc1O,45.4

# System: Amaranthus tricolor
# Experiment: Herbicidal activity against Amaranthus tricolor assessed as inhibitory rate of fresh weight gain at 7.5 g/hm'2 relative to control
# Format: functional
row,SMILES,inhibition (INH) [%]
1,COC(=O)[C@@H](C)Oc1ccc(Oc2ncc(C(F)(F)F)cc2Cl)cc1 [HALOXYFOP-P-METHYL],21.6
2,Cc1ccc(/C=C/C(=O)c2occc2O)cc1,72.2
3,O=C(/C=C/c1ccc(F)cc1)c1occc1O,24.3
4,O=C(/C=C/c1ccc(Br)cc1)c1occc1O,71.7
5,O=C(/C=C/c1ccccc1)c1occc1O,32.6
6,O=C(/C=C/c1ccccn1)c1occc1O,23.9
7,O=C(/C=C/c1ccc2ccccc2c1)c1occc1O,90.6

# System: Cucumis sativus
# Experiment: Herbicidal activity against Cucumis sativus (cucumber) assessed as inhibitory rate of seedling height at 7.5 g/hm'2 relative to control
# Format: functional
row,SMILES,inhibition (INH) [%]
1,COC(=O)[C@@H](C)Oc1ccc(Oc2ncc(C(F)(F)F)cc2Cl)cc1 [HALOXYFOP-P-METHYL],42.1
2,Cc1ccc(/C=C/C(=O)c2occc2O)cc1,32.7
3,O=C(/C=C/c1ccc(F)cc1)c1occc1O,56.8
4,O=C(/C=C/c1ccc(Br)cc1)c1occc1O,40.5
5,O=C(/C=C/c1ccccc1)c1occc1O,33.7
6,O=C(/C=C/c1ccccn1)c1occc1O,31
7,O=C(/C=C/c1ccc2ccccc2c1)c1occc1O,41.3
